Results as given in publication PMC8362126, “Proteolysis Targeting Chimera (PROTAC) for Macrophage Migration Inhibitory Factor (MIF) Has Anti‐Proliferative Activity in Lung Cancer Cells” (Angewandte Chemie (International Ed. in English), 2021).
“And” between values parts separate entries of the source, which are not always exact repeats. Equal entries are not always repeated. “Also recorded” adds a separate entry of the source.

How the values were obtained:
MIF [1] = molecular target: T1, MIF (Homo sapiens, UniProt P14174); assay: MIF degradation in A549 cells, western-blot; format: cell-based; parameters: endogenous in cells; host or cells: A549 (ATCC CCL-185); conditions: A549 cells; for rescue of MD9 mediated MIF degradation: 2 hours pretreatment (1 100 µM, 3 50 µM, 4 50 µM, Bortezomib), then 10 µM MD9 12 h; for rescue of MD13 mediated MIF degradation: co-treatment (Bortezomib) or 1 hour pretreatment (3, 4) with MD13
T1 sequence (P14174 2-115 limits assumed): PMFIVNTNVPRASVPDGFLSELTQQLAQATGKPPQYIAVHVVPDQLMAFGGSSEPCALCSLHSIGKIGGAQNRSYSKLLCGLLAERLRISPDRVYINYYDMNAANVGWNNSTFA
Experimental: The concentration dependence of PROTAC MD13‐mediated induction of MIF degradation in A549 cells was investigated using western‐blot. […] The MIF levels were normalized to the vehicle treated control and plotted to the respective MD13 concentrations. This provided a DC50 of around 100 nM and a maximal degradation of around 90–95 % at concentrations higher than 1 μM (Figure 3 B). The DC50 of MD13 measured by ELISA assay was about 200 nM (Figure 3 C), which is in line with the result from western‐blot. […]
Cell lysates were prepared using the protocol described above. About 10−40 μg of total protein was mixed with the 4× Laemmli Loading Dye (250 mM Tris, pH 6.8, 40% glycerol, 5% SDS, 0.005% bromophenol blue, 4% β-mercaptoethanol) and heated at 95−100 °C for 5 min and loaded onto a 12% Bis-Tris gel (Bio-Rad Laboratories, #4561084) and proteins were separated at 120V. Afterwards, proteins were transferred to polyvinylidene fluoride (PVDF) membranes, subsequently non-specific antibody binding was blocked with 5% nonfat dry milk (BIO-RAD, #1706404) in TBST buffer and incubated overnight at 4 °C with one of the following primary antibodies: anti-MIF (1:1000, ThermoFisher, #PA5-27343 ) or anti-β-actin (1:10000 Cell Signalling, #8457). The membranes were further incubated with a goat anti-rabbit HRP-conjugated secondary antibody (1:2000, DAKO, p0448) for 2 h at room temperature. Proteins were visualized with an ECLTM Prime Western Blotting System (GE Healthcare #RPN2232). The immunoblot was generated by ChemiDoc MP Imaging Systems (Bio-Rad) and analyzed by the ImageJ software. […]
As a control, the same experiment was repeated and analyzed by a western-blot assay (Figure 3B). The potency estimated from the Western blot assay was 1 µM (Figure 3C), which is consistent with the result from the ELISA assay. The “Hook effect” […]

MIF [2] = molecular target: T1, MIF; assay: MIF degradation in A549 cells, cell lysate-based ELISA; parameters: endogenous in cells; host or cells: A549 (ATCC CCL-185)
Experimental: In addition, A549 cells have been successfully used for assessing activity of cereblon ligand‐based PROTACs previously.[42] Therefore, A549 is a suitable cell line for evaluating the effect of our putative MIF‐directed PROTACs MD1 to MD12 on MIF protein levels. The reduction in MIF levels were monitored in A549 cells that were treated with two different PROTAC concentrations (20 and 2 μM) for 12 h in order to estimate the dose dependency, which is important for PROTACs because of the Hook effect.[35] The MIF levels in cell lysates were analyzed using an enzyme‐linked immunosorbent assay (ELISA).
S3. ELISA screening of MIF protein level on MIF-directed PROTACs
Cell culture. Human A549 lung cancer cells (ATCCCCL-185) or HEK293 kidney […]
containing 10% (v/v) fetal bovine serum (FBS), 100 U/mL penicillin/streptomycin […]
ELISA. 7×10^5 A549 cells per well were plated in 6-well plates. The next day, cells were treated with a solution of compounds or the vehicle for 12 h. Subsequently, the culture medium was removed and cells were washed twice with cold PBS and collected after trypsin (0.5 mL) degestion. Cells were then lyzed in lysis buffer (150 mM NaCl, 50 mM Hepes pH 7.5, 5 mM EDTA, 0.1% (w/v) NP40) containing protease inhibitor cocktail (Roche, #11836153001) and resuspended vigourously. The supernatant was collected after spinning down at 16 000g at 4 °C for 30 min. The total protein concentration was determined with PierceTM BCA protein assay kit ( ThermoFisher , #23225). The protein concentration was normalized between samples. The relative MIF levels from 1µg total protein were determined by ELISA with the human MIF DuoSet ELISA kit according to the instructions of the manufacturer (R&D systems, #DY289).
Figure S1. Screening of compounds for MIF degradation activity by cell lysate -based ELISA.
A549 cells were treated with compounds at (A) 20 or (B) 2 µM for 12 h. Data was normalized […]
(§1) (1 picture or pasted object on this page, not shown here)

MIF [3] = molecular target: T1, MIF; assay: MIF catalyzed 4-HPP tautomerization assay; format: biochemical; conditions: for IC50: 4-HPP conversion assay; for Ki: MIF catalyzed 4-HPP tautomerization, n=3
Experimental: S2. MIF Tautomerase activity IC50 study
The protocol for measuring inhibition of MIF tautomerase enzyme activity and enzyme kinetics was described previously.[8] Briefly, 180 µL of a 500 nM MIF solution in boric acid buffer (435 mM, pH 6.2) was mixed with 10 µL of a 20 mM EDTA solution in demiwater and 10 µL of a solution of the desired compound dissolved in DMSO or blanc DMSO. This mixture was pre-incubated at room temperature for 10 min. Next, 50 µL of this mixture was mixed with 50 µL of a 1 mM 4-HPP solution in ammonium acetate buffer (50 mM, pH 6.0). Subsequently, MIF tautomerase activity was monitored by measuring the increase of UV absorbance at 306 nm over time. MIF tautomerase activity in the presence a blank DMSO dilution was set to 100% enzyme activity. Non-catalyzed conversion of the substrate in absence of MIF was set to 0%.
Data from the first three minutes were used to calculate the initial velocities. All experiments were repeated three times and calculations were performed with the program GraphPad Prism.
Table S1. 4-HPP conversion assay results of MIF PROTACs
(also on this page, place not known: p rotocol previously. subs trate log [MD-1] (10^-6 M) Activity of MIF tautomerase(%) -2 -1 0 1 2 0 50 100 log [MD-2] (10^-6 M) Activity of MIF tautomerase(%) -2 -1 0 1 2 0 50 100)

MIF [4] = molecular target: T1, MIF; assay: MIF degradation in A549 cells, cell lysate-based ELISA; parameters: endogenous in cells; host or cells: A549 (ATCC CCL-185); conditions: 12 h, vs DMSO, mean±SD n=3
ERK phosphorylation = ERK phosphorylation by western blot; format: cell-based, human; conditions: A549, 2 μM; 3 and 4 for 24 h, MD15 for 6, 24 or 48 h
Experimental: The effect of treatment with MIF‐directed PROTAC MD13 on MIF‐related signaling pathways was investigated by assessment of ERK phosphorylation using western blot analysis. […] Thus treatment with the MIF‐directed PROTAC MD13 inhibits ERK phosphorylation as a MIF‐related signaling event. […]
ERK signaling pathway study. A549 cells (2x10^5 cells per well) were seeded into each well of a 6-well plate with 2 mL RPMI-1640 medium containing 10% FBS (Costar Europe, Badhoevedorp, The Netherlands), and 1% penicillin/streptomycin solution (Corning). After overnight culturing, the cells were treated with MD13, MD15, or DMSO for the time indicated.
After that, cells were lysed by RIPA buffer containing 1× PhosSTOP and protease inhibitor (PI) cocktail (Roche, Mannheim, Germany). The BCA Protein Assay Kit (Pierce, Rockford IL, USA) was used to determine the protein concentration. 30 µg protein was separated by a pre-cast 10% NuPAGE Bis-Tris gel (Invitrogen, USA) and then transferred to a polyvinylidene difluoride (PVDF) membrane. After blocking with 5% of skimmed milk for 1 hour at room temperature and incubation with the appropriate primary antibody (pERK, #9101, Cell Signaling, 1:1000; GAPDH, #97166, Cell Signaling, 1:10000) overnight at 4 °C, the membrane was treated with an HRP-conjugated secondary goat anti-rabbit antibody (#P0448, Dako, 1:2000) or rabbit anti-mouse antibody (#P0260, Dako, 1:2000) at room temperature for 1 hour.
The protein bands were visualized with enhanced chemiluminescence (ECL) solution (GE Healthcare). The figures were quantified with imageJ software based on grayscale. […]

A549 cells = assay: CyQUANT cell proliferation assay; format: cell-based, human; conditions: concentrations up to 20 μM, 72 hours
Experimental: S8. Cell growth, cell cycle and pERK signaling study
Cell proliferation was measured with the CyQUANT® Direct Cell Proliferation Assay Kit (Thermo Fisher, #C35011). A549 cells were cultured in 96-well plates at a density of 1,000 cells/well and treated with different concentrations of MIF PROTAC (0.02-20 μM) for 72 h.
Cells were incubated with detection reagent (100 μL) for 60 min at 37 °C with 5% CO2. The fluorescence of each well was read at 485/535nm by plate reader (BioTek).
Figure S8. Cells were seeded with a density of 1000 cells per well in a 96-well plate. After overnight incubation, the cells were treated with various concentration of MD13 for 72 hours.
The resulting cells were quantified by CyQUANT® cell proliferation assays and compared with the vehicle (DMSO) control (n=3). […]
(also on this page, place not known: (0.02 -20 CO 2. (20 µM) 4 (20 µM) µM 20 µM 0.01 µM 0.08 µM 0.74 µM 6.7 µM 20 µM 0 50 100 Cell (%) H441 n.s. * * ** *** * n.s. MD15 96 -well MD13 proliferation control 96 -well round - 2 3) […]
as §1

A549 cell spheroids = assay: 3D tumor spheroid assay; format: cell-based, human; conditions: 5 μM, 12 days
Experimental: A 3D spheroid model was employed to investigate the effect of longer term MD13 treatment in a more complex model for tumor growth. The 3D spheroid model was established using A549 cancer cells by a method adapted from Feng et al.[48] The spheroids were grown over a 12‐day period in absence or presence of PROTAC MD13. Each spheroid was prepared from about 1000 A549 cells. After three‐day incubation, these spheroids were treated with 1, 2, or 5 μM of MD13 with 72 hours intervals over 12 days. Spheroid growth was monitored by measuring the diameter and this was compared to day 0 of the treatment. The tumor spheroids in MD13 treated groups were significant smaller compared to the control group (Figure 5 B and Figure S9). With continuous exposure to 1, 2, or 5 μM of MD13 for 12 days, the growth of the spheroid tumor volume was inhibited by 42 %, 53 %, and 81 % compared with control group, respectively. […]
Tumor spheroid assay. A549 cells (1000 cells/well) were seeded onto a 96-well round-bottomed ultra low attachment plate (Corning). After 2 days of incubation without disturbance, the spheroid was treated with indicated compound every 3 days. […]
(1 picture or pasted object on this page, not shown here) […]
inverted microscope (Nikon Eclipse Ti) connected with a NIS-elements software. The data were analyzed and plotted with Graphpad Prism8. […]
cells were seeded in an ultralow attachment 96-well round-bottomed plate (1000 cells/well) to generate tumor spheroids (a single spheroid per well). After initiation, the spheroids were treated with different compounds at the indicated concentrations every three days. DMSO was used as vehicle control. The day of the first treatment was indicated as day 0. (A) Representative images were obtained at the indicated intervals using an inverted microscope. Scale bar: 500 μm. (B) Analysis was carried out using NIS-Elements AR 3.1 software, and growth curves were obtained relative to the untreated spheroids (day 0) and plotted with GraphPad Prism 8. Values are shown as means ± SD (n = 3 spheroids/time point, **p < 0.01 vs control). […]

[5] = A549 cells, 12 h, vs DMSO, mean±SD n=3

Compound | rescue of MD9 mediated MIF degradation (MIF [1]) | rescue of MD13 mediated MIF degradation (MIF [1]) | degradation [%] 2 μM (MIF [2]; [5]) [%] | IC50 (MIF [3]) [nM] | Ki (MIF [3]) [nM] | degradation [%] 0.2 μM (MIF [4]) [%] | other results
CC(C)C[C@H](NC(=O)[C@H](Cc1ccccc1)NC(=O)c1cnccn1)B(O)O [Bortezomib] | considerably decreased; also recorded: rescued | inhibited the degradation of MIF |  |  |  |  | rescue of MD13 mediated MIF degradation (MIF [1]; listed as bortezomib): able to abolish the MD13 triggered degradation
O=C1CCC(N2C(=O)c3cccc(NCCCCCCC(=O)Nc4ccc(N5Cc6ccc(O)cc6OC5=O)cc4)c3C2=O)C(=O)N1 (centres unmarked) [MD9] |  |  | 55±4 | 76 ± 4 | 51 ± 3 | 24±4 | Dmax at 20 µM (MIF [2]; A549, 12 h, A549 cells, 20 µM, 12 h, vs DMSO, mean±SD n=3): 92 ± 10%; Dmax (MIF [2]; A549, A549 cells, 12 h, ELISA, read-out: maximal degradation): > 90%; DC50 (MIF [2]; A549 cells, 12 h, ELISA, read-out: half-maximal degradation concentration (DC50)): 1500 nM and ~1500 nM; Hook effect (MIF [2]; A549 cells, at 20 μM, ELISA and western-blot): Hook effect; DC50 (MIF [1]; 12 h, western-blot, read-out: DC50 (potency estimated from western blot)): 1000 nM and ~1500 nM; time of treatment after which MIF degradation becomes visible (MIF [1]; MD9 at 10 μM): 3 h
O=C1CCC(N2C(=O)c3cccc(NCCCCCCCCCC(=O)Nc4ccc(N5Cc6ccc(O)cc6OC5=O)cc4)c3C2=O)C(=O)N1 (centres unmarked) [MD14] |  |  | 64±2 | 97 ± 6 | 65 ± 4 | 51±2 | 
COC(=O)CC1CC(c2ccc(O)cc2)=NO1 (centres unmarked) [compound 1, ISO 1] | partial to complete rescue; also recorded: rescued |  |  |  |  |  | 
Nc1cccc2c1C(=O)N(C1CCC(=O)NC1=O)C2=O (centres unmarked) [compound 4, pomalidomide] | partial to complete rescue; also recorded: rescued | rescued MIF from degradation; also recorded: able to abolish the MD13 triggered degradation |  |  |  |  | effect on pERK levels (ERK phosphorylation): no significant decrease; effect on cell proliferation (A549 cells): no effect; also recorded: no or little effect; influence on spheroid tumor growth (A549 cell spheroids): no significant influence
